Measured values reported in patent US5573999A, “β-substituted cinnamic acid derivative” (BASF Aktiengesellschaft, priority 1991, dated 1996).

Assays:
[1] = tested on: mitochondrial respiration; test: Inhibition of mitochondrial respiration (rate of reduction of cytochrome c in isolated mitochondria), yeast; assay type: biochemical, Saccharomyces cerevisiae; settings: DMSO control
Excerpt: In order to determine the effect of the compounds according to the invention on mitochondrial respiration it is first necessary to isolate the mitochondria from the organisms being investigated. For this, in the case of the yeast Saccharomyces cerevisiae, the cells in a 30 to 40% strength suspension of the yeast in an aqueous solution of 0.6M mannitol+0.01M tris[hydroxymethyl]-aminomethane+0.002M disodium ethylenediaminetetraacetate (pH 6.8) are disrupted in a glass bead mill, and the extract is fractionated by differential centrifugation at 1000× g and 12000× g. The mitochondria are in the pellet from the 12000× g centrifugation.
(§1) Used as control is a mixture with the equivalent amount of pure DMSO. The inhibition at the concentration of agent in each case is then calculated as follows [formula] where ΔE is the change in extinction, at is the change in time, [formula] is the reaction rate for the control and [formula] is the reaction rate for the sample x.
(§2) The inhibition was determined in each case at a test substance concentration of 1.8/10^-5mol/l .

[2] = tested on: mitochondrial respiration; test: Inhibition of mitochondrial respiration (rate of reduction of cytochrome c in isolated mitochondria), phytopathogenic fungus; assay type: biochemical, Drechslera sorokiniana; settings: DMSO control
Excerpt: (§3) It is also possible similarly to isolate mitochondria from other organisms, e.g. from the phytopathogenic fungus Drechslera sorokiniana (synonym: Helminthosporium sativum), from the dermatophyte Trichophyton mentagrophytes, which is a human pathogen, and, for example, from the house fly (Musca domestica) as insect or from the spider mite Tetranychus urticae.
as §1, §2

[3] = tested on: mitochondrial respiration; test: Inhibition of mitochondrial respiration (rate of reduction of cytochrome c in isolated mitochondria), house fly; assay type: biochemical, Musca domestica; settings: DMSO control
Excerpt: as §3, §1, §2

[4] = tested on: wheat mildew (Erysiphe graminis var. tritici); test: Activity against wheat mildew on wheat seedlings; assay type: in vivo; settings: aqueous dispersion containing 250 ppm active ingredient, assessed after 7 days
Protocol: Leaves of pot-grown wheat seedlings of the Fruhgold variety were sprayed with an aqueous liquor which contained 80% of active ingredient and 20% of emulsifier in dry matter and, 24 hours after the sprayed-on layer had dried, were dusted with spores of wheat mildew (Erysiphe graminis var. tritici). The test plants were then placed in a greenhouse at from 20° to 22° C. and from 75 to 80% relative humidity. The extent of mildew spread was assessed after 7 days.

[5] = tested on: Plasmopara viticola; test: Activity against Plasmopara viticola on potted vines; assay type: in vivo; settings: aqueous dispersion containing 250 ppm active ingredient, infected 8 days after spraying
Protocol: Leaves of potted vines of the Muller Thurgau variety were sprayed with an aqueous liquor which contained 80% of active ingredient and 20% of emulsifier in dry matter. To assess the duration of action of the active ingredient, after the sprayed-on layer had dried the plants were placed in a greenhouse for 8 days. The leaves were then infected with a suspension of Plasmopara viticola zoospores. The vines were then placed first in a chamber saturated with water vapor at 24° C. for 48 hours and then in a greenhouse at from 20° to 30° C. for 5 days. After this, to speed up sporangiophore discharge, the plants were again placed in the humidity chamber for 16 hours. The extent of fungus attack was then assessed on the undersides of the leaves.

[6] = tested on: Pyricularia oryzae; assay type: in vivo; settings: aqueous dispersion containing 250 ppm active ingredient; rice seedlings, protective, assessed after 6 days

Compound	% inhibition of respiration at 1.8 × 10^-5 mol/l test substance, Saccharomyces cerevisiae [1] [%]	% inhibition of respiration at 1.8 × 10^-5 mol/l test substance, Drechslera sorokiniana [2] [%]	% inhibition of respiration at 1.8 × 10^-5 mol/l test substance, Musca domestica [3] [%]	fungal attack, wheat mildew [4] [%]	fungal attack, Plasmopara viticola [5] [%]	fungal attack, Pyricularia oryzae [6] [%]
COC(=O)/C=C(/OC)c1ccccc1/C=C/c1ccc(Oc2ccccc2)cc1 [Compound 1a.273]	95	96	95			
COC(=O)/C=C(/OC)c1ccccc1/C=C/c1ccoc1 [Compound 1a.292]	87	79	61	15		
O=C(C=C(c1ccccc1)c1ccccc1)N1CCOCC1 [A, morpholide of β-phenylcinnamic acid, reference compound]	2	0	5	45	35	60
COC(=O)/C=C(/OC)c1ccccc1/C=C/c1ccc(-c2ccccc2)cc1 [Compound 1a.268, methyl 2-[2-(4-phenylphenyl)-(E)-ethenyl]-(E)-β-methoxycinnamate]	95	97	95			
COC(=O)/C=C(/OC)c1ccccc1/C=C/c1ccccc1C(F)(F)F [Compound 1a.243]	99	94	89			
COC(=O)/C=C(/OC)c1ccccc1COc1cccc(C=NOCc2ccccc2Cl)c1 [Compound 1a.64]	94	98	93			
COC(=O)/C=C(/OC)c1ccccc1/C=C/c1coc(-c2ccc(Cl)cc2)n1 [Compound 1a.302]	97		96			15
COC(=O)/C=C(/OC)c1ccccc1CON=C(C)c1ccc(Cl)cc1 [Compound 1a.356, methyl2-[1-(4-chlorophenyl)ethylideneaminoxymethyl]-(E)-β-methoxycinnamate]				15	10	15
COC(=O)/C=C(/OC)c1ccccc1/C=C/c1csc(-c2ccc(Cl)cc2)n1 [Compound 1a.314]	99					15
CON=C(C)c1cc(C)c(OCc2ccccc2/C(=C\C(=O)OC)OC)cc1C [Compound 1a.61]	98		97	15	10	
COC(=O)/C=C(/OC)c1ccccc1COc1nc(-c2ccccc2)cs1 [Compound 1a.181, methyl (E)-β-methoxy-2-(4-phenyl-2-thiazolyloxymethyl)cinnamate]	99					15
CO/N=C(\C)c1ccc(OCc2ccccc2/C(=C\C(=O)OC)OC)c(C)c1 [Compound 1a.72, methyl (E)-β-methoxy-2-[2-methyl-4-(1-methoximinoethyl)phenoxymethyl]cinnamate]	98	100	94	15	10	15
C=CCON=Cc1cccc(OCc2ccccc2/C(=C\C(=O)OC)OC)c1 [Compound 1a.63]	93		85	15	10	
COC(=O)/C=C(/OC)c1ccccc1COc1ccc(C(C)=NOCC(C)C)cc1C [Compound 1a.60]	97	99	93	15		
COC(=O)/C=C(/OC)c1ccccc1/C=C\c1ccc(-c2ccccc2)cc1 [Compound 1a.269, methyl 2-[2-(4-phenylphenyl)-(Z)-ethenyl]-(E)-β-methoxycinnamate]	96	81	76			
COC(=O)/C=C(/OC)c1ccccc1/C=C\c1ccccc1C [Compound 1a.248]	95			15		15
COC(=O)/C=C(/OC)c1ccccc1/C=C/c1ccccc1[N+](=O)[O-] [Compound 1a.238]	99	74	87		10	
